Common to all, as to test: NCI tumour cell line growth inhibition, 48 h
The subject of test [1] is U251 CNS.
For test [2], the system named is HOP-92 NSCLC.
The subject of test [3] is OVCAR-5 ovarian.
Test [4] relates to NCI-H522 lung.
Test [5] deals with IGROV1 ovarian.
In test [6] the test system is MDA-N.
For test [7], the system named is RPMI-8226 leukemia.
In test [8] the test system is SF-295 CNS.
Test [9] deals with HOP-62 NSCLC.
The test system of test [10] is EKVX NSCLC.
In test [11] the test system is HCC-2998 colon.
Test [12] has as its system ACHN renal.
Test [13] deals with SW-620 colon.
Test [14] concerns SK-MEL-2 melanoma.
For test [15], the system named is LOX IMVI melanoma.
The test system of test [16] is CCRF-CEM leukemia.
The subject of test [17] is RXF 393 renal.
Test [18] relates to MCF7 breast.

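Tested at 5 concentrations; 48 h exposure; 96-well plates; endpoints linearly interpolated, else capped at highest concentration. TGI denotes the concentration required for complete inhibition of growth.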 Where a SMILES comes first, the peptide text is derived from it. The star is where a group is joined. Boc = CC(C)(C)OC(=O)*

As to `CC1(C)OP(=O)(c2ccccc2)C=C1Br` (stereo not given), the TGI in test [1], in [2], in [3], in test [4], in test [5] and in test [6] was greater than 100 µM each time. The TGI in [7], in [8], in test [9], in test [10], in test [11] and in test [12] was greater than 100 µM each time. Moreover, the TGI in test [13], in [14] and in test [15] was greater than 100 µM throughout.

For `CCOC(=O)C(CC(C)C)NC(=O)C(N)Cc1ccc(N(CCCl)CCCl)cc1` (stereo not given), the TGI in test [1] turned out to be 22.4 µM; in test [2], 11.2 µM; in test [3], 33.7 µM; in test [4] it was 8.53 µM; in [5], 31.6 µM; in test [6], 26.1 µM. The TGI was greater than 64.7 µM in [7]; 21.9 µM in test [8]; 22 µM in [9]; 37.5 µM in [10]; 20 µM in test [11]; 1.81 µM in test [12]. In addition, the TGI in [13] was 35.7 µM; in test [14], 11.8 µM; in test [15] it was 0.278 µM; in test [16] it was 13 µM; in [17], 5.12 µM.

As to `CC(Cc1ccc(O)cn1)(NC(=O)c1ccccc1)C(=O)O` (stereo not given), the TGI in test [1], in test [2], in [3], in test [4], in [5] and in test [6] was greater than 100 µM throughout. Further, the TGI in test [7], in [8], in test [9], in [10], in test [11] and in test [12] was greater than 100 µM each time. For the same compound, the TGI in test [13], in [14], in test [15], in [16] and in [17] was greater than 100 µM throughout.

Turning to `Cc1ccc(S(=O)(=O)NN=C2C(C)CC(C(C)(C)C)CC2C)cc1` (stereo not given), the TGI was 31.5 µM in test [1]; 30.1 µM in test [2]; 31.5 µM in test [3]; 50.2 µM in test [4]; 38.6 µM in test [18]; greater than 100 µM in [5]. Besides, the TGI in test [6] is 40.9 µM; in test [7], 52.8 µM; in test [8], 33.1 µM; in test [9], 31.6 µM; in test [11] it was 32.1 µM; in [13] it was 40.6 µM. The TGI in test [14] is 32.9 µM; in test [15], 33.2 µM; in test [16] it was 41.8 µM.

In the case of `CCCc1c(O)c2ccccc2[nH]c1=O`, the TGI in test [1], in [2], in test [3], in [4], in [18] and in [5] was greater than 100 µM each time. For the same compound, the TGI in test [6], in test [7], in test [8], in test [9], in [10] and in [11] was greater than 100 µM in each case. In addition, the TGI in test [12], in test [13], in test [15] and in test [16] was greater than 100 µM in each case.

Take `CNC(=O)CNC(=O)C(NC(=O)CNC(=O)C1CCCN1C(=O)C(C)NC(=O)C(NC(=O)OC(C)(C)C)C(C)C)C(C)C` (stereo not given) (Boc-VAPGVG-NHMe; configuration not given here): the TGI in test [1], in [2], in test [3], in test [4], in [18] and in [5] was greater than 100 µM throughout. Besides, the TGI in [6], in test [7], in test [8], in test [9], in test [10] and in test [11] was greater than 100 µM each time. Also, the TGI in [12], in test [13], in test [14], in test [15] and in test [16] was greater than 100 µM in each case.

Consider `CC(=O)OCC(OC(C)=O)C(OC(C)=O)C(/C=N\Nc1nc2ccccc2c(=O)[nH]1)OC(C)=O` (stereo not given), for which the TGI in test [1], in test [2], in test [3], in test [18], in [5] and in [6] was greater than 100 µM each time. The TGI in test [7], in test [8], in [9], in [10], in [12] and in test [13] was greater than 100 µM throughout. The TGI in test [14], in test [15] and in [16] was greater than 100 µM throughout.

As for `CC(=O)OCc1cc(OC(C)=O)c2cc3c(OC(C)=O)cccc3c(OC(C)=O)c2c1`, the TGI stood at 32 µM in test [1]; 52.2 µM in test [2]; 46.4 µM in test [3]; 38.9 µM in [18]; 40.3 µM in test [5]; 40.9 µM in test [6]. The TGI in [7] was 44.6 µM; in [8], 32.9 µM; in [9], 39.6 µM; in test [10], 34.1 µM; in test [11] it was 31.6 µM; in test [12] it was 34.2 µM. In test [13], this compound gave a TGI of 44.2 µM.
